# Data from PubChem BioAssay AID1259411 (Chemical Carcinogenesis Research Information System (CCRIS), 2018).
# Active and inactive are the calls of the source. How the calls were made is not given here.
# Test system: rodent carcinogenicity bioassays, tumor incidence
# Experiment: CCRIS carcinogenicity studies
# Details: Dose: 0
# Summary of the method: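 NCI-built, expert-reviewed records of carcinogenicity and related test outcomes (mutagenicity, tumor promotion/inhibition) compiled from published and report sources, historical span 1985-2011, not updated.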
smiles,measurement,setting,value
NCCN,carcinogen call,"Species: MOUSE, Strain/Sex: C3H/MALE, Route: DERMAL, 25 µL OF A 1% DEIONIZED WATER SOLUTION 3/WK FOR LIFESPAN (STUDY DURATION: LIFESPAN)",inactive; negative
same,carcinogen call,"Species: RAT, Strain/Sex: F344/FEMALE, Route: ORAL, 20, 100, 350 MG/KG/D IN DIET FOR 104 WK (STUDY DURATION: 104 WK), 20, 100, 350 MG/KG/D IN DIET FOR 104 WK (STUDY DURATION: 104 WK)",inactive; negative
same,carcinogen call,"Species: RAT, Strain/Sex: F344/MALE, Route: ORAL, 20, 100, 350 MG/KG/D IN DIET FOR 104 WK (STUDY DURATION: 104 WK), 20, 100, 350 MG/KG/D IN DIET FOR 104 WK (STUDY DURATION: 104 WK)",inactive; negative
CCNC(=O)N(CC)N=O,carcinogen call,"Species: RAT, Strain/Sex: F344/FEMALE, Route: GAVAGE, 20, 40 UMOL/WK IN CORN OIL/ETHYL ACETATE (2: 1) FOR 30 WK (LOW DOSE) OR 22.5 WK (HIGH DOSE) FOR TOTAL DOSES OF 0, 0.6, 20, 40 UMOL/WK IN CORN OIL/ETHYL ACETATE (2: 1) FOR 30 WK (LOW DOSE) OR 22.5 WK (HIGH DOSE) FOR TOTAL DOSES OF 0, 0.6, Tumor Site: Type of Lesion: MAMMARY GLAND: TUMOR",active; positive
same,carcinogen call,"Species: RAT, Strain/Sex: F344/FEMALE, Route: INTRAVESICULAR, 3 MG 2/WK FOR 30 WK (STUDY DURATION: LIFETIME), Tumor Site: Type of Lesion: MAMMARY GLAND: TUMOR, LUNG: TUMOR, ZYMBAL GLAND: TUMOR, Tumor Site: Type of Lesion: MAMMARY GLAND: TUMOR, LUNG: TUMOR, ZYMBAL GLAND: TUMOR",active; positive
same,carcinogen call,"Species: RAT, Strain/Sex: F344/FEMALE, Route: ORAL, 20, 40 UMOL/WK IN DRINKING WATER FOR 30 WK FOR TOTAL DOSES OF 0, 0.6, 1.2 MMOL (STUDY DURATION: LIFETIME), 20, 40 UMOL/WK IN DRINKING WATER FOR 30 WK FOR TOTAL DOSES OF 0, 0.6, 1.2 MMOL (STUDY DURATION: LIFETIME), Tumor Site: Type of Lesion: LUNG: TUMOR, MAMMARY GLAND: TUMOR, UTERUS: TUMOR, Tumor Site: Type of Lesion: LUNG: TUMOR, MAMMARY GLAND: TUMOR, UTERUS: TUMOR",active; positive
same,carcinogen call,"Species: RAT, Strain/Sex: F344/MALE, Route: GAVAGE, 20, 40 UMOL/WK IN CORN OIL/ETHYL ACETATE (2: 1) FOR 30 WK FOR TOTAL DOSES OF 0, 0.6, 1.2 MMOL (STUDY DURATION: LIFETI, 20, 40 UMOL/WK IN CORN OIL/ETHYL ACETATE (2: 1) FOR 30 WK FOR TOTAL DOSES OF 0, 0.6, 1.2 MMOL (STUDY DURATION: LIFETI, Tumor Site: Type of Lesion: LUNG: TUMOR, TESTIS: MESOTHELIOMA, NERVOUS SYSTEM: TUMOR, ZYMBAL GLAND: TUMOR, COLON: TUMOR, Tumor Site: Type of Lesion: LUNG: TUMOR, TESTIS: MESOTHELIOMA, NERVOUS SYSTEM: TUMOR, ZYMBAL GLAND: TUMOR, COLON: TUMOR",active; positive
same,carcinogen call,"Species: RAT, Strain/Sex: F344/MALE, Route: ORAL, 20, 40 UMOL/WK IN DRINKING WATER FOR 30 WK FOR TOTAL DOSES OF 0, 0.6, 1.2 MMOL (STUDY DURATION: LIFETIME), 20, 40 UMOL/WK IN DRINKING WATER FOR 30 WK FOR TOTAL DOSES OF 0, 0.6, 1.2 MMOL (STUDY DURATION: LIFETIME), Tumor Site: Type of Lesion: LUNG: TUMOR, TESTIS: MESOTHELIOMA, COLON: TUMOR, SKIN: TUMOR, Tumor Site: Type of Lesion: LUNG: TUMOR, TESTIS: MESOTHELIOMA, COLON: TUMOR, SKIN: TUMOR",active; positive
Cc1cn([C@H]2C[C@H](N=[N+]=[N-])[C@@H](CO)O2)c(=O)[nH]c1=O,carcinogen call,"Species: MOUSE, Strain/Sex: B6C3F1/FEMALE, Route: GAVAGE, 30, 60, 120 MG/KG BW IN 0.5% METHYLCELLULOSE ADMINISTERED IN TWO EQUAL DOSES DAILY 5 D/WK FOR 105 WK (STUDY DURATION:, 30, 60, 120 MG/KG BW IN 0.5% METHYLCELLULOSE ADMINISTERED IN TWO EQUAL DOSES DAILY 5 D/WK FOR 105 WK (STUDY DURATION:, Tumor Site: Type of Lesion: VAGINA: SQUAMOUS CELL CARCINOMA, SQUAMOUS CELL PAPILLOMA OR CARCINOMA",active; positive
same,carcinogen call,"Species: MOUSE, Strain/Sex: B6C3F1/MALE, Route: GAVAGE, 30, 60, 120 MG/KG BW IN 0.5% METHYLCELLULOSE ADMINISTERED IN TWO EQUAL DOSES DAILY 5 D/WK FOR 105 WK (STUDY DURATION:, 30, 60, 120 MG/KG BW IN 0.5% METHYLCELLULOSE ADMINISTERED IN TWO EQUAL DOSES DAILY 5 D/WK FOR 105 WK (STUDY DURATION:, Tumor Site: Type of Lesion: KIDNEY: RENAL TUBULE ADENOMA, RENAL TUBULE CARCINOMA, HARDERIAN GLAND: ADENOMA, ADENOMA OR CARCINOMA",equivocal
same,carcinogen call,"Species: MOUSE, Strain/Sex: CD-1/FEMALE, Route: GAVAGE, 30, 60, 120 MG/KG/D ON DAY 91 OF STUDY DOSES LOWERED TO 20, 30, 40 MG/KG (STUDY DURATION: 22 MO), 30, 60, 120 MG/KG/D ON DAY 91 OF STUDY DOSES LOWERED TO 20, 30, 40 MG/KG (STUDY DURATION: 22 MO), Tumor Site: Type of Lesion: VAGINA: SQUAMOUS CELL CARCINOMA",active; positive
same,carcinogen call,"Species: MOUSE, Strain/Sex: CD-1/FEMALE, Route: INTRAVAGINAL, 5, 20 MG/ML IN 0.9% SALINE ADMINISTERED AT 0.2 ML 2/D (STUDY DURATION: 24 MO), 5, 20 MG/ML IN 0.9% SALINE ADMINISTERED AT 0.2 ML 2/D (STUDY DURATION: 24 MO), Tumor Site: Type of Lesion: VAGINA: SQUAMOUS CELL CARCINOMA",active; positive
same,carcinogen call,"Species: MOUSE, Strain/Sex: CD-1/MALE, Route: GAVAGE, 30, 60, 120 MG/KG/D ON DAY 91 OF STUDY DOSES LOWERED TO 20, 30, 40 MG/KG/D (STUDY DURATION: 19 MO), 30, 60, 120 MG/KG/D ON DAY 91 OF STUDY DOSES LOWERED TO 20, 30, 40 MG/KG/D (STUDY DURATION: 19 MO)",inactive; negative
same,carcinogen call,"Species: Mouse, Strain/Sex: Swiss (CD-1)/Female F1 Generation, Route: In utero, 50, 100, 200, 300 mg/kg by gavage to F0 generation females 7 d/wk for 29-39 d (delivery day): females mated with unex, 50, 100, 200, 300 mg/kg by gavage to F0 generation females 7 d/wk for 29-39 d (delivery day): females mated with unex",inactive; negative; decreased litter size and fertility rates at two highest doses
same,carcinogen call,"Species: Mouse, Strain/Sex: Swiss (CD-1)/Male F1 Generation, Route: In utero, 50, 100, 200, 300 mg/kg by gavage to F0 generation females 7 d/wk for 29-39 d (delivery day): females mated with unex, 50, 100, 200, 300 mg/kg by gavage to F0 generation females 7 d/wk for 29-39 d (delivery day): females mated with unex, Tumor Site: Type of Lesion: Lung, Alveolar/Bronchiolar Carcinoma (5/50, 11/50, 6/50, 11/37, 8/32), Alveolar/Bronchiolar adenoma or carcinoma (14/50,, Tumor Site: Type of Lesion: Lung, Alveolar/Bronchiolar Carcinoma (5/50, 11/50, 6/50, 11/37, 8/32), Alveolar/Bronchiolar adenoma or carcinoma (14/50",active; positive; decreased litter size and fertility rates at two highest doses
same,carcinogen call,"Species: RAT, Strain/Sex: STRAIN-CD/MALE, Route: GAVAGE, 80, 220, 600 MG/KG/D, HIGH DOSE LOWERED TO 450 MG/KG THEN 300 MG/KG ON DAYS 91 AND 278, RESPECTIVELY (STUDY DURATION:, 80, 220, 600 MG/KG/D, HIGH DOSE LOWERED TO 450 MG/KG THEN 300 MG/KG ON DAYS 91 AND 278, RESPECTIVELY (STUDY DURATION:",inactive; negative
O=[N+]([O-])c1cc2c3c(ccc2c2ccccc12)[C@H](O)[C@@H](O)C=C3,carcinogen call,"Species: MOUSE, Strain/Sex: SWISS/FEMALE, Route: INTRAPERITONEAL, 100 NMOL (TOTAL DOSE) 1/7, 2/7 AND 4/7 ADMINISTERED ON DAYS 1, 8 AND 15 OF LIFE RESPECTIVELY (STUDY DURATION: 32 WK), Tumor Site: Type of Lesion: LUNG: TUMOR",active; positive
same,carcinogen call,"Species: MOUSE, Strain/Sex: SWISS/MALE, Route: INTRAPERITONEAL, 100 NMOL (TOTAL DOSE) 1/7, 2/7 AND 4/7 ADMINISTERED ON DAYS 1, 8 AND 15 OF LIFE RESPECTIVELY (STUDY DURATION: 32 WK), Tumor Site: Type of Lesion: LUNG: TUMOR, LIVER: TUMOR",active; positive
